Measured values: patent US20150018301A1, “LRRK-2-Mediated Neuronal Toxicity” (THE JOHNS HOPKINS UNIVERSITY, priority 2009, published 2015)

Tests used:
G2019S LRRK2 = G2019S LRRK2 (Homo sapiens, UniProt Q5S007, G2019S); assay: In vitro kinase assay: LRRK2-mediated phosphorylation of 4E-BP1; format: biochemical
Method: The GST-4E-BP1 expressing vector was generated using the Invitrogen Gateway LR Clonase System. Briefly, an entry clone containing the 4E-BP1 sequence was reacted with the destination vector, pDEST-15 in the presence of the LR clonase mixture. After the clonase reaction, the mixture was transformed into One Shot BL21 chemically competent E. coli. The transformed cells were grown on ampicillin containing LB agar plate for one day at 37° C. Colonies containing GST-4E-BP1 were isolated. For protein induction, 100 μM IPTG was added to 100 mL culture and incubated for 3 h at 30° C. After IPTG incubation, cells were collected by centrifugation at 3,000×g for 15 min. The pellet was lysed with sonication in the presence of lysis butter containing 0.5% TX-100, 50 mM Tris-HCl (pH 8.0), 100 mM NaCl, 0.5 mM EGTA, 5 mM MgCl2, 2 mM DTT, and complete protease inhibitors. The lysate was centrifugated at 15,000×g for 15 min and the supernatant was incubated with GSH-sepharose beads for 2 h at 4° C. After incubation, the beads were washed with PBS containing an additional 150 mM NaCl and 0.1% TX-100 three times. The protein was eluted with elution buffer containing Hepes (pH 8.0), 150 mM NaCl, 30% glycerol, and 30 mM glutathione. The eluted proteins were stored at −80° C.
The in vitro kinase assay was performed as previously described. West, A. B. et al. Parkinson's disease-associated mutations in leucine-rich repeat kinase 2 augment kinase activity. Proc Natl Acad Sci USA 102, 16842-16847 (2005). Recombinant LRRK2 and MBP or CST-4E-BP1 were combined before the kinase reaction. LRRK2 autophosphorylation is LRRK2 itself phosphorylation and MBP or GST-4E-BP1 phosphorylation is induced by LRRK2. After the kinase reaction, combined LRRK2 and MBP or GST-4E-BP1 were loaded on SDSPAGE and phosphorylated LRRK2 and MBP or GST-4E-BP1 could be detected separately an a single gel. Recombinant proteins and inhibitors were incubated at 30° C. in kinase assay buffer containing 20 mM Hepes (pH 7.4), 5 mM EGTA, and 20 mM β-glycerol phosphate. 0.5 μg MBP (Upstate) or 0.5 μg GST-4B-BP1, 50 μM ATP (Sigma), 20 mM MgCl2, and 1 μCi [γ-32P] ATP (PerkinElmer) was added after 5 min. The reaction was performed at 30° C. to reduce non-specific 32P incorporation for 15 min and terminated by the addition of 5×Laemmili sample buffer. The reactions were then heated at 70° C. for 10 min and resolved by 12% SDS-PAGE. Gels were stained by coomassie brilliant blue after fixation with 10% acetic acid and 40% methanol and then exposed to a Phosphoimager. Data were analyzed by ImageQuant 6.0 software.

[1] = test system: C. elegans expressing LRRK2 G2019S in DA neurons; assay: Transgenic nematode model of LRRK2 G2019S-induced DA neurodegeneration; format: in vivo, Caenorhabditis elegans; conditions: for rescue of DA neurodegeneration: 7 day-old worms; for worms with wild-type DA neurons (4 CEP and 2 ADE): 7-day-old worms, n=90, 48% with 1% DMSO
Method: Nematodes were maintained following the standard procedures. Brenner, S., 771 GENETICS 71-94 (1974). Isogenic worm strains expressing LRRK2, G2019S, UAXX [baInlX; Pdat-1::LRRK2 G2019S, Pdat-1::gfp] were generated via microinjection, integrated into the genome and out-crossed three times. Age-synchronized worms were obtained by treating gravid adults with 2% sodium hypochlorite and 0.5M NaOH to isolate embryos. Lewis, J. A., 48 METHODS CELL BIOL. 3-29 (1995). These embryos were treated with indicated concentrations of LRRK2 kinase inhibitors, which were dissolved in 1% DSMO, for 24 h. at 20° C. with gentle shaking. The worms were then washed and transferred into NGM plates seeded with OP50 bacteria, and incubated as 20° C. The six anterior DA neurons (4 CEP and 2 ADE neurons) of 30 animals/trial were examined for neurodegeneration when the animals were 7 days old. A total of 90 animals for each treatment were analyzed (3 trials of 30 animals/trial). […] See Hamamichi et al., 105(2) PROC. NATL. ACAD. SCI. USA 728-33 (2008); and Cao et al, 25 J. NEUROSCI. 3801-12 (2005). For each trial, 30 worms were transferred into a 2% agarose pad, immobilized with 2 mM levamisole, and analyzed using Nikon Eclipse E800 epifluorescence microscope equipped with Endow GFP HYQ filter cube (Chrom Technology, Rockingham, Vt.). Images were captured with a Cool Snap CCD camera (Photometrics, Tucson, Ariz.) driven by MetaMorph software (Universal Imaging, West Chester, Pa.).
To determine whether the LRRK2 kinase inhibitors protect against LRRK2-induced neurodegeneration in vivo, the LRRK2 kinase inhibitors were tested in the C. elegans model of LRRK2 G2019S-induced neurodegeneration described above. The DA transporter (dat-1) was used to direct expression of LRRK2 G2019S in DA neurons.

[2] = from literature; cited from earlier work
[3] = test system: HSV-G2019S LRRK2 dopaminergic neurotoxicity; assay: HSV amplicon-based mouse model of LRRK2 dopaminergic neurotoxicity; format: in vivo; conditions: for loss of tyrosine hydroxylase-positive neurons induced by HSV-G2019S LRRK2: 2.5 mg per kg i.p. twice daily, 3 weeks, versus DMSO- and indirubin-injected controls

G2019S LRRK2, sequence (Q5S007 whole entry G2019S): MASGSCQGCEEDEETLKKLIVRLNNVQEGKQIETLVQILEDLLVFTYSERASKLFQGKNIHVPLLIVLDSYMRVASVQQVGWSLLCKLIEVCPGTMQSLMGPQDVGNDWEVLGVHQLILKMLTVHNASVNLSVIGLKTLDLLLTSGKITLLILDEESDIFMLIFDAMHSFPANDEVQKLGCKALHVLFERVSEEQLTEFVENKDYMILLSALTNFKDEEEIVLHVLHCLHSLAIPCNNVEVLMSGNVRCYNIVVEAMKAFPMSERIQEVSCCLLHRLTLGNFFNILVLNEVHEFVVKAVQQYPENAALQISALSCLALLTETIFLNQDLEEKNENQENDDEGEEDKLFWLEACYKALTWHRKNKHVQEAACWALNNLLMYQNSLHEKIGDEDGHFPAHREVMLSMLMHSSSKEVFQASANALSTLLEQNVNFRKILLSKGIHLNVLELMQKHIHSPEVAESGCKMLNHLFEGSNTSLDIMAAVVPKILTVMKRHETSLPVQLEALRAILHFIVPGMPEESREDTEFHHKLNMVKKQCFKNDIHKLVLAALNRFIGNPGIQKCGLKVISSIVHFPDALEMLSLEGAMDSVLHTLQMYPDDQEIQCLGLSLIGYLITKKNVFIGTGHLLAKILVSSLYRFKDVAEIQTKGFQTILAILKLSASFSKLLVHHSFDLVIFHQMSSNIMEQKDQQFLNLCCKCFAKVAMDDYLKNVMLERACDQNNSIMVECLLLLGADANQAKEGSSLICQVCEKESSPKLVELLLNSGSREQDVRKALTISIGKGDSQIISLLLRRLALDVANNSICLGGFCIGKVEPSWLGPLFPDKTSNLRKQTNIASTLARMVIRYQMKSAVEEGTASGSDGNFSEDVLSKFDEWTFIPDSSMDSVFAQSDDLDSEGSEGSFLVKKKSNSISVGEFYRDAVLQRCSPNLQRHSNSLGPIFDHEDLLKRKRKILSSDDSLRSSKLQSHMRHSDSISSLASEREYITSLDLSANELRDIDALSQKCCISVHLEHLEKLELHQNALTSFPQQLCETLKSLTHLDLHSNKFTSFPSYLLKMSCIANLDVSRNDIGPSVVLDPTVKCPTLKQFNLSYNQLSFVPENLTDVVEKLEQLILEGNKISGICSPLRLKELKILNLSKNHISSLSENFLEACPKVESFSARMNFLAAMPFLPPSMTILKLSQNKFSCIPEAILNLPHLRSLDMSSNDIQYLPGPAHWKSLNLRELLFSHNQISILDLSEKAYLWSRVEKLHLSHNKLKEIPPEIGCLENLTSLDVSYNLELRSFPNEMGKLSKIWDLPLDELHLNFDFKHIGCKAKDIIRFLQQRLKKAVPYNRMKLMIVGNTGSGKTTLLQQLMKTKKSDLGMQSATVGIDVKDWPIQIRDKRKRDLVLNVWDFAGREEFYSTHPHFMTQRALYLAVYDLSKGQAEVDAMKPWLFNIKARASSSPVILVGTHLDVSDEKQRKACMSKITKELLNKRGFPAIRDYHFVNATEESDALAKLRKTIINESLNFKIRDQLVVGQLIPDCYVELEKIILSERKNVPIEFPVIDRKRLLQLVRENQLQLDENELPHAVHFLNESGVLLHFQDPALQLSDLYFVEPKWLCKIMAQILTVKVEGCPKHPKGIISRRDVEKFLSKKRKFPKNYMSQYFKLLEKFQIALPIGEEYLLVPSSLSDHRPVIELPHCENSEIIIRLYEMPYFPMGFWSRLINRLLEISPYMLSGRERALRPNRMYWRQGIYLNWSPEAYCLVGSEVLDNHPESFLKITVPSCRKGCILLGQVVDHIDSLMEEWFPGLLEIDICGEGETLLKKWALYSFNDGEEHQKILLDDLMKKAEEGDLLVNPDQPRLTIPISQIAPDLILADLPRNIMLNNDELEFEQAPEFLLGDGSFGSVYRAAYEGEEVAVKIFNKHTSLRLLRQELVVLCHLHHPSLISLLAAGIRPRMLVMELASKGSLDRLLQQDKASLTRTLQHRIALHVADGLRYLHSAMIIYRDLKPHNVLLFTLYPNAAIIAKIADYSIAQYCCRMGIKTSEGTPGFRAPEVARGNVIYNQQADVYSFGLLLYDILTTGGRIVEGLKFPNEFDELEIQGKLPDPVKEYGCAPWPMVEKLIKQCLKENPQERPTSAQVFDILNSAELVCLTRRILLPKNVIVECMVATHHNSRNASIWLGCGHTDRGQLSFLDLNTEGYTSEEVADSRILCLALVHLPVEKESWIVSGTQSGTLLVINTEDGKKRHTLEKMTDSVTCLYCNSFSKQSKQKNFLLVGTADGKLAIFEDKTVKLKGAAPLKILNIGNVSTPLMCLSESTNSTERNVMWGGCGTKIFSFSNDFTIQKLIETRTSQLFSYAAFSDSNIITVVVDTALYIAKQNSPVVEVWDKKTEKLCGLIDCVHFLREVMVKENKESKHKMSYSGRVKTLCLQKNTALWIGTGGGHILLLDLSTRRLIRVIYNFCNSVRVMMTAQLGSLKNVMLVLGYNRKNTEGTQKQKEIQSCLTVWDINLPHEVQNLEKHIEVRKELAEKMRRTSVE

With `Cc1ccc(NC(=O)c2cccc(N(C)C)c2)cc1NC(=O)c1ccc(O)cc1` [Inhibitor 53, ZM336372] the “LRRK2-mediated phosphorylation of 4E-BP1” value (G2019S LRRK2) was “did not inhibit” and the “rescue of DA neurodegeneration” value [1] was “failed to rescue”.
For `O=C1Nc2ccccc2/C1=C1/Nc2ccccc2/C1=N\O` [Inhibitor 70, Indirubin-3-monooxine], the “LRRK2-mediated phosphorylation of 4E-BP1” value (G2019S LRRK2) is given as “inhibited”, the “crossing of the blood-brain barrier” value [2] is given as “known to cross the blood-brain barrier” and the “loss of tyrosine hydroxylase-positive neurons induced by HSV-G2019S LRRK2” value [3] is given as “attenuated”.
In the case of `O=C1Nc2ccc(I)cc2/C1=C/c1cc(Br)c(O)c(Br)c1` [Inhibitor 56, GW5074], the “LRRK2-mediated phosphorylation of 4E-BP1” value (G2019S LRRK2) is given as “inhibited”, the “crossing of the blood-brain barrier” value [2] is given as “known to cross the blood-brain barrier” and the “loss of tyrosine hydroxylase-positive neurons induced by HSV-G2019S LRRK2” value [3] is given as “attenuated”. For the same compound, the “increase in ILB4-positive cells in striatum and substantia nigra pars compacta” value ([3]; G2019S LRRK2 mice, 2.5 mg/kg i.p. twice daily) was “prevented”, the “reduction in the density of tyrosine hydroxylase-positive fibers (striatum)” value ([3]; HSV-LRRK2 G2019S mice, 2.5 mg/kg i.p. twice daily) was “rescued” and the “worms with wild-type DA neurons (4 CEP and 2 ADE)” value ([1]; 10 μM) was 66%. The “worms with wild-type DA neurons (4 CEP and 2 ADE)” value ([1]; 25 μM) was 67% and the “rescue of DA neurodegeneration” value [1] was “protect worms from neurodegeneration”.
